From patent US11518764B2, “Substituted heteroaryls as inhibitors of the BCL6 BTB domain protein-protein interaction” (Ontario Institute for Cancer Research (OICR), priority 2018, dated 2022)
pKd: −log10 of the molar value.

Tests used:
BCL6 BTB domain = BCL6 BTB domain (Homo sapiens (Human), UniProt P41182); assay: Surface plasmon resonance (SPR) assay; format: binding; conditions: BCL6 BTB domain captured on SA chip, single cycle kinetics
Karpas422 cells = assay: Tumor cell growth inhibition assay; format: cell-based; conditions: Homo sapiens, KARPAS-422, 144 h, read-out: Tumor Growth Inhibition in Karpas-422 (IC50, uM), Karpas422 cells, six days, ATPlite
How it was run: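 Karpas422 cells (2,000/well) in Alpha-MEM with 10% FBS dosed across 10 concentrations (top 5 uM) and grown six days at 37° C., 5% CO2. Viability read as ATPlite luminescence.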

[1] = system: BCL6 reporter construct (3xBCL6-TK-Luc) in SuDHL4 cells; assay: Cell-based luciferase assay; conditions: Homo sapiens, SU-DHL-4, 48 h, read-out: Luciferase-Assay EC50, uM), SuDHL4-3xBCL6-TK-Luc cells, two days, high dose 10 uM
How it was run: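 SuDHL4 cells stably carrying a 3×BCL6-site TK-promoter firefly luciferase reporter, seeded at 15,000 cells/well, were dosed over a 10-point range (top 10 uM) and grown two days at 37 °C, 5% CO2. Luminescence then read after adding neolite reagent at room temperature.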

Structure (SMILES) | pKd (BCL6 BTB domain) | IC50 (Karpas422 cells) [µM] | EC50 [1] [µM]
COc1c(O)c(C(N)=O)cc(-c2cn(CC(=O)Nc3cc(N4C[C@@H](C)N[C@@H](C)C4)ncc3Cl)c3ncn(C)c(=O)c23)c1F [Compound I-193] | 6.64 | 2.66 | 5.39
Cc1c(N2CCOCC2)ncc(F)c1NC(=O)Cn1cc(-c2cc(Cl)c(O)c(C(N)=O)c2)c2c(=O)n(C)cnc21 [Compound I-194] | 6.92 | 5.65 | 11
Cn1cnc2c(c(-c3cc(Cl)c(O)c(C(N)=O)c3)cn2CC(=O)Nc2cc(N3CCOCC3)c(F)cc2Cl)c1=O [Compound I-195] | 6.71 | 1.08 | 1.5
Cn1cnc2c(c(-c3cc(C(N)=O)c(O)c(Cl)c3F)cn2CC(=O)Nc2cc(N3CCOCC3)ncc2F)c1=O [Compound I-196] | 6.49 | 10 | 6.34
COc1c(O)c(C(N)=O)cc(-c2cn(CC(=O)Nc3cc(N4CCOCC4)ncc3F)c3ncn(C)c(=O)c23)c1F [Compound I-197] | 6.66 | 10 | 4.01
C[C@@H](CO)Nc1cc(NC(=O)Cn2cc(-c3cc(Cl)c(O)c(C(N)=O)c3)c3c(=O)n(C)cnc32)c(Cl)cn1 [Compound I-198] | 7.66 | 3.02 | 5.82
Cc1nc2c(c(-c3cc(F)c(O)c(C(N)=O)c3)cn2CC(=O)Nc2cc(N3CC4CCC(C3)O4)ncc2Cl)c(=O)n1C [Compound I-199] | 8.09 | 0.0909 | 0.117
Cn1cnc2c(c(-c3cc(Cl)c(O)c(C(N)=O)c3)cn2CC(=O)Nc2cc(N3CCOCC3)nc(F)c2Cl)c1=O [Compound I-200] | 7.75 | 0.133 | 0.158
Cn1cnc2c(c(-c3cc(Cl)c(O)c(C(N)=O)c3)cn2CC(=O)Nc2cc(N3CC(C)(C)NC(C)(C)C3)ncc2Cl)c1=O [Compound I-201] | 7.95 | 0.155 | 0.317
CC[C@@H]1CN(c2cc(NC(=O)Cn3cc(-c4cc(Cl)c(O)c(C(N)=O)c4)c4c(=O)n(C)cnc43)c(Cl)cn2)CCO1 [Compound I-202] | 7.62 | 0.156 | 0.211
CC[C@H]1CN(c2cc(NC(=O)Cn3cc(-c4cc(Cl)c(O)c(C(N)=O)c4)c4c(=O)n(C)cnc43)c(Cl)cn2)CCO1 [Compound I-203] | 7.51 | 0.187 | 0.222
CC(C)[C@H]1CN(c2cc(NC(=O)Cn3cc(-c4cc(Cl)c(O)c(C(N)=O)c4)c4c(=O)n(C)cnc43)c(Cl)cn2)CCO1 [Compound I-204] | 7.45 | 0.146 | 0.251
CC(C)[C@@H]1CN(c2cc(NC(=O)Cn3cc(-c4cc(Cl)c(O)c(C(N)=O)c4)c4c(=O)n(C)cnc43)c(Cl)cn2)CCO1 [Compound I-205] | 7.36 | 0.457 | 0.248
Cc1nc2c(c(-c3cc(Cl)c(O)c(C(N)=O)c3)cn2CC(=O)Nc2cc(N3CCN(C)C[C@@H]3C)ncc2Cl)c(=O)n1C [Compound I-206] | 8.03 | 0.128 | 0.122
Cc1nc2c(c(-c3cc(F)c(O)c(C(N)=O)c3)cn2CC(=O)Nc2cc(N3CCN(C)C[C@@H]3C)ncc2Cl)c(=O)n1C [Compound I-207] | 8.35 | 0.0703 | 0.0429
Cn1cnc2c(c(-c3cc(Cl)c(O)c(C(N)=O)c3)cn2CC(=O)Nc2cc(F)nc(F)c2F)c1=O [Compound I-208] | 6.25 | 1.2 | 5.15
C=Cc1cc(NC(=O)Cn2cc(-c3cc(Cl)c(O)c(C(N)=O)c3)c3c(=O)n(C)cnc32)c(Cl)cn1 [Compound I-209] | 7.29 | 0.343 | 0.296

Structure (SMILES) | pKd (BCL6 BTB domain) | IC50 (Karpas422 cells) [µM] | EC50 [1] [µM]
Cn1cnc2c(c(-c3cc(Cl)c(O)c(C(N)=O)c3)cn2CC(=O)Nc2c(F)c(F)nc(F)c2Cl)c1=O [Compound I-210] | 5.96 | 6.16 | 14.9
Cn1cnc2c(c(-c3cc(Cl)c(O)c(C(N)=O)c3)cn2CC(=O)NC2CCCCC2)c1=O [Compound I-211] | 5.92 | 10 | 10
Cn1cnc2c(c(-c3cc(Cl)c(O)c(C(N)=O)c3)cn2CC(=O)Nc2cc(N3CCOCC3(C)C)ncc2Cl)c1=O [Compound I-212] | 7.55 | 0.457 | 0.494
Cn1cnc2c(c(-c3cc(Cl)c(O)c(C(N)=O)c3)cn2CC(=O)Nc2cc3c(cc2Cl)OCCN3CCN2CCOCC2)c1=O [Compound I-213] | 7.73 | 0.878 | 0.842
Cn1cnc2c(c(-c3cc(Cl)c(O)c(C(N)=O)c3)cn2CC(=O)Nc2cc3c(cc2Cl)OCC(=O)N3CCN2CCOCC2)c1=O [Compound I-214] | 7.51 | 0.855 | 1.35
CN(C)CC1CN(c2cc(NC(=O)Cn3cc(-c4cc(Cl)c(O)c(C(N)=O)c4)c4c(=O)n(C)cnc43)c(Cl)cn2)CCO1 (stereo not drawn) [Compound I-215] | 8.01 | 0.662 | 0.806
C[C@H]1COCCN1c1cc(NC(=O)Cn2cc(-c3cc(Cl)c(O)c(C(N)=O)c3)c3c(=O)n(C)c(C(F)(F)F)nc32)c(Cl)cn1 [Compound I-216] | 7.12 | 0.831 | 0.97
Cn1cnc2c(c(-c3cc(F)c(O)c(C(N)=O)c3)cn2CC(=O)Nc2cc(N3CCOCC3)ncc2F)c1=O [Compound I-217] | 7.58 | 0.382 | 0.727
C[C@@H]1CN(c2cc(NC(=O)Cn3cc(-c4cc(F)c(O)c(C(N)=O)c4)c4c(=O)n(C)cnc43)c(Cl)cn2)C[C@H](C)N1 [Compound I-218] | 7.79 | 0.563 | 0.975
Cn1cnc2c(c(-c3cc(F)c(O)c(C(N)=O)c3)cn2CC(=O)Nc2cc(N3CCOCC3)c(F)cc2Cl)c1=O [Compound I-219] | 7.15 | 0.216 | 0.535
CN1C(C)(C)CN(c2cc(NC(=O)Cn3cc(-c4cc(F)c(O)c(C(N)=O)c4)c4c(=O)n(C)cnc43)c(Cl)cn2)CC1(C)C [Compound I-221] | 7.85 | 0.11 | 0.14
Cn1cnc2c(c(-c3cc(C(N)=O)c(O)cc3F)cn2CC(=O)Nc2cc(N3CCOCC3)ncc2F)c1=O [Compound I-222] | 6.64 | 0.371 | 1.33
Cn1cnc2c(c(-c3cc(C(N)=O)c(O)c(F)c3F)cn2CC(=O)Nc2cc(N3CC4CCOC4C3)ncc2Cl)c1=O (stereo not drawn) [Compound I-224] | 7.65 | 0.651 | 2.02
C[C@@H]1CN(c2cc(NC(=O)Cn3cc(-c4cc(C(N)=O)c(O)c(F)c4F)c4c(=O)n(C)cnc43)c(Cl)cn2)C[C@H](C)N1 [Compound I-225] | 6.94 | 4.34 | 20.5
Cc1nc2cc(Cl)c(NC(=O)Cn3cc(-c4cc(C(N)=O)c(O)c(F)c4F)c4c(=O)n(C)cnc43)cc2o1 [Compound I-226] | 6.33 | 1.89 | 5.12
Cn1cnc2c(c(-c3cc(C(N)=O)c(O)c(F)c3F)cn2CC(=O)Nc2cc(N3CCOCC3)c(F)cc2Cl)c1=O [Compound I-227] | 6.38 | 2.16 | 2.5
C[C@@H]1CN(C)C[C@H](C)N1c1cc(NC(=O)Cn2cc(-c3cc(C(N)=O)c(O)c(F)c3F)c3c(=O)n(C)cnc32)c(Cl)c(F)n1 [Compound I-229] | 7.79 | 0.0784 | 0.102
